Reference: patent US9453051B2, “Cyclosporin derivatives” (priority 2011, dated 2016)

Tests used:
in vitro = conditions: human, Caco-2, pH 7.4
[1] = Determination of cell permeability in PAMPA cell membranes (Parallel Artificial Membrane Permeability Assay); format: in vitro ADME; conditions: 500 μM, Hepes buffer pH 7.4, 16 hours, room temperature
Experimental: After an incubation of 16 hours at room temperature in a liquid chamber the optical density of the solution after filtration has been measured in a range of 250 to 500 nm in steps of 10 nm each. The percentage “Flux” has been calculated from the integral of the graph between 250 and 500 nm and standardized on the optical density determined in the parallel reaction without artificial membrane.

NFAT = assay: Cellular NFAT-reporter-gene assay (GloResponse NFAT-RE-luc2P HEK293); format: cell-based; conditions: Homo sapiens, HEK293, 16 h, read-out: NFAT-reporter-gene assay IC50
From the text: An antigen specific stimulation of the T-cell receptor causes the activation of transcription factors such as e.g. NFAT (nuclear factor of activated T cells). NFAT-activation is essential for the expression of interleukine-2 and therefore, for the proliferation of T-cells as part of the immune response. A stable NFAT-reporter-gene cell line enables the analysis of modulators of the NFAT-pathways and thus, the evaluation of the immunosuppressive effects of compounds.
The stably transfected reporter-gene cell line GloResponse NFAT-RE-luc2P HEK293 (promega Corp. USA) was cultivated in DMEM (10% FCS; 2 mM Glutamin; 200 μg/ml Hygromycin) and seeded on 96-well plates (200.000 cells/well). The compounds to be tested were either added to the cells in a 2-point-determination (5 μM and 10 μM) or an ICH-determination (concentration series 4.1 nM-1 μM). […] Immediately thereafter the cells were stimulated with 5 nM PMA and 2 μM ionomycin and incubated over 16 h (37° C.; cell incubator). This double stimulation simulates a T-cell receptor stimulation and causes a NFAT activation with subsequently expression of the luciferase-reporter-gene. The amount of luciferase was quantitatively determined after 16 h by measurement of the bioluminescence by Bright-Glo Luciferase-Assay-System (Promega Corp., USA). The averaged luciferase values of the vehicle treated (1% DMSO) and with PMA/ionomycin stimulated cells were used as positive control and reference value.

calcineurin = calcineurin (Homo sapiens, UniProt P62937+P63098+Q08209); assay: Inhibition of the phosphatase activity of calcineurin (scintillation-proximity-assay, in presence of Cyp18);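 note: calcineurin dephosphorylation of a ³³P-labelled RII phosphopeptide, captured on streptavidin-coated wells and read by scintillation counting, with uninhibited enzyme activity taken as 100%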
[2] = molecular target: recombinant human wild type Cyp18 (Cyp18 wt) (Homo sapiens, UniProt P62937); assay: biochemical
Chain of recombinant human wild type Cyp18 (Cyp18 wt) (P62937 whole entry): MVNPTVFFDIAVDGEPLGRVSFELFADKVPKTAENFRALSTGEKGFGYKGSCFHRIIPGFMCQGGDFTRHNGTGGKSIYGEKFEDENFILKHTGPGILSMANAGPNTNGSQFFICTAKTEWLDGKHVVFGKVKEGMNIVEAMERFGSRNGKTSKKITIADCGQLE
Experimental: The determination was performed on a UV/Vis spectrometer at 10° C. cuvette temperature, whereby the device is operated at 390 nm in kinetic-mode (measurement buffer: 35 mM HEPES/NaOH pH 7.8 (AppliChem A1069)). 0.58 nM recombinant human wild type Cyp18 (Cyp18 wt), 2.33 nM bovine serum albumin (BSA) and 1 mg/ml chymotrypsin (Merck) solved in 35 mM HEPES/NaOH pH 7.8 as well as different concentration of each test substance, where appropriate, were in the cuvette. The reaction was started with a stock solution of Suc-Ala-Ala-Pro-Phe-4-nitroanilide (Bachem, 10 mg/ml DMSO) as substrate so that a final substrate concentration of 32 μM resulted. The extinction-time-curves were evaluated after expiry of the fast phase of the reaction i.e. after approximately 60 seconds according to a rate equation of a first-order reaction.

SMILES | Papp A→B at 2 h, 5 μM (in vitro) [×10⁻⁶ cm/s] | Papp B→A at 2 h, 5 μM (in vitro) [×10⁻⁶ cm/s] | Cell permeability in PAMPA-cell membranes [1] [% flux] | IC50 (NFAT) [µM] | IC50 (calcineurin) [µM] | IC50 [2] [µM]
CC[C@@H]1NC(=O)[C@H]([C@H](O)[C@H](C)Cc2nc3cccc(C(=O)O)c3[nH]2)N(C)C(=O)[C@H](C(C)C)N(C)C(=O)[C@H](CC(C)C)N(C)C(=O)[C@H](CC(C)C)N(C)C(=O)[C@@H](C)NC(=O)[C@H](C)NC(=O)[C@H](CC(C)C)N(C)C(=O)[C@H](C(C)C)NC(=O)[C@H](CC(C)C)N(C)C(=O)CN(C)C1=O [Compound 28] | < 0.4 | 0.3 | 3.3 | > 10 | – | –
CC[C@@H]1NC(=O)[C@H]([C@H](O)[C@H](C)Cc2nc3ccc(C(=O)O)cc3n2C)N(C)C(=O)[C@H](C(C)C)N(C)C(=O)[C@H](CC(C)C)N(C)C(=O)[C@H](CC(C)C)N(C)C(=O)[C@@H](C)NC(=O)[C@H](C)NC(=O)[C@H](CC(C)C)N(C)C(=O)[C@H](C(C)C)NC(=O)[C@H](CC(C)C)N(C)C(=O)CN(C)C1=O [Compound 37] | 0.1 | – | 2 | > 10 | – | –
CC[C@@H]1NC(=O)[C@H]([C@H](O)[C@H](C)Cc2nc3cc(C(N)=O)ccc3[nH]2)N(C)C(=O)[C@H](C(C)C)N(C)C(=O)[C@H](CC(C)C)N(C)C(=O)[C@H](CC(C)C)N(C)C(=O)[C@@H](C)NC(=O)[C@H](C)NC(=O)[C@H](CC(C)C)N(C)C(=O)[C@H](C(C)C)NC(=O)[C@H](CC(C)C)N(C)C(=O)CN(C)C1=O [Compound 23] | 0.3 | 0.6 | – | > 10 | > 10 | 0.0038
CC[C@@H]1NC(=O)[C@H]([C@H](O)[C@H](C)Cc2nc3nc(O)nc(O)c3[nH]2)N(C)C(=O)[C@H](C(C)C)N(C)C(=O)[C@H](CC(C)C)N(C)C(=O)[C@H](CC(C)C)N(C)C(=O)[C@@H](C)NC(=O)[C@H](C)NC(=O)[C@H](CC(C)C)N(C)C(=O)[C@H](C(C)C)NC(=O)[C@H](CC(C)C)N(C)C(=O)CN(C)C1=O [Compound 24] | – | – | – | > 10 | > 10 | 0.0062
CC[C@@H]1NC(=O)[C@H]([C@H](O)[C@H](C)Cc2nc3cc(C(=O)O)c(C(=O)O)cc3[nH]2)N(C)C(=O)[C@H](C(C)C)N(C)C(=O)[C@H](CC(C)C)N(C)C(=O)[C@H](CC(C)C)N(C)C(=O)[C@@H](C)NC(=O)[C@H](C)NC(=O)[C@H](CC(C)C)N(C)C(=O)[C@H](C(C)C)NC(=O)[C@H](CC(C)C)N(C)C(=O)CN(C)C1=O [Compound 31] | < 0.15 | < 0.18 | 0.2 | > 10 | – | 0.0399
CC[C@@H]1NC(=O)[C@H]([C@H](O)[C@H](C)Cc2nc3cc(N4CCN(C)CC4)ccc3[nH]2)N(C)C(=O)[C@H](C(C)C)N(C)C(=O)[C@H](CC(C)C)N(C)C(=O)[C@H](CC(C)C)N(C)C(=O)[C@@H](C)NC(=O)[C@H](C)NC(=O)[C@H](CC(C)C)N(C)C(=O)[C@H](C(C)C)NC(=O)[C@H](CC(C)C)N(C)C(=O)CN(C)C1=O [Compound 41] | – | – | – | > 10 | > 10 | 0.003
CC[C@@H]1NC(=O)[C@H]([C@H](O)[C@H](C)Cc2nc3cc(NC(=O)C(F)(F)F)ccc3[nH]2)N(C)C(=O)[C@H](C(C)C)N(C)C(=O)[C@H](CC(C)C)N(C)C(=O)[C@H](CC(C)C)N(C)C(=O)[C@@H](C)NC(=O)[C@H](C)NC(=O)[C@H](CC(C)C)N(C)C(=O)[C@H](C(C)C)NC(=O)[C@H](CC(C)C)N(C)C(=O)CN(C)C1=O [Compound 38] | – | – | – | 3.8 | 3.34 | 0.0143
CC[C@@H]1NC(=O)[C@H]([C@H](O)[C@H](C)Cc2nc3cc(-c4ccc(N)c(N)c4)ccc3[nH]2)N(C)C(=O)[C@H](C(C)C)N(C)C(=O)[C@H](CC(C)C)N(C)C(=O)[C@H](CC(C)C)N(C)C(=O)[C@@H](C)NC(=O)[C@H](C)NC(=O)[C@H](CC(C)C)N(C)C(=O)[C@H](C(C)C)NC(=O)[C@H](CC(C)C)N(C)C(=O)CN(C)C1=O [Compound 39] | – | – | – | 10 | > 10 | 0.0061
